Measurements: ChEMBL document CHEMBL4229547, “Design, synthesis and biological mechanisms research on 1,2,3-triazole derivatives of Jiyuan Oridonin A” (Bioorg Med Chem, 2018)
Calls of active or inactive are those of the source. The calls are words filed in the database; no cut-off is given here.

Assays:
MGC-803 [1] = assay: Cell cycle arrest in human MGC803 cells assessed as accumulation at G0/G1 phase at 1.5 ug/ml after 48 hrs in presence of N-acetyl cysteine by propidium iodide staining-based flow cytometric method (reference value: 52.5 +/- 3.71%); type: functional
MGC-803 [2] = assay: Induction of apoptosis in human MGC803 cells assessed as early apoptotic cells at 3 ug/ml in presence of N-acetyl cysteine by annexin V-FITC/propidium iodide staining-based flow cytometric method (reference value: 1.3%); type: functional
SMMC-7721 = assay: Antiproliferative activity against human SMMC7721 cells after 48 hrs by MTT assay; type: functional, cell-based; conditions: SMMC-7721, 48 h
MGC-803 [3] = assay: Induction of apoptosis in human MGC803 cells assessed as upregulation of cytochrome c levels in cytoplasm at 1.5 to 6 ug/ml after 48 hrs by Western blot method; type: functional, cell-based
PC-3 = assay: Antiproliferative activity against human PC3 cells after 48 hrs by MTT assay; type: functional, cell-based; conditions: PC-3, 48 h
MGC-803 [4] = assay: Induction of apoptosis in human MGC803 cells assessed as late apoptotic cells at 1.5 ug/ml by annexin V-FITC/propidium iodide staining-based flow cytometric method (reference value: 0.1%); type: functional
MGC-803 [5] = assay: Cell cycle arrest in human MGC803 cells assessed as accumulation at S phase at 1.5 ug/ml after 48 hrs by propidium iodide staining-based flow cytometric method (reference value: 32.5 +/- 2.25%); type: functional
MGC-803 [6] = assay: Induction of apoptosis in human MGC803 cells assessed as increase in cell debris after 24 hrs by inverted microscopic method; type: functional, cell-based
MGC-803 [7] = assay: Cell cycle arrest in human MGC803 cells assessed as accumulation at G2/M phase at 3 ug/ml after 48 hrs in presence of N-acetyl cysteine by propidium iodide staining-based flow cytometric method (reference value: 17.2 +/- 1.35%); type: functional
MGC-803 [8] = assay: Induction of apoptosis in human MGC803 cells assessed as early apoptotic cells at 1.5 ug/ml in presence of N-acetyl cysteine by annexin V-FITC/propidium iodide staining-based flow cytometric method (reference value: 1.3%); type: functional
MGC-803 [9] = assay: Cell cycle arrest in human MGC803 cells assessed as accumulation at G2/M phase at 1.5 ug/ml after 48 hrs in presence of N-acetyl cysteine by propidium iodide staining-based flow cytometric method (reference value: 17.2 +/- 1.35%); type: functional
MGC-803 [10] = assay: Induction of apoptosis in human MGC803 cells assessed as decrease in ratio of Bcl-2/Bax at 1.5 to 6 ug/ml after 48 hrs by Western blot method; type: functional, cell-based
MGC-803 [11] = assay: Cell cycle arrest in human MGC803 cells assessed as accumulation at G0/G1 phase at 3 ug/ml after 48 hrs by propidium iodide staining-based flow cytometric method (reference value: 52.5 +/- 3.71%); type: functional
MGC-803 [12] = assay: Antiproliferative activity against human MGC803 cells at 8 to 16 ug/ml after 48 hrs in presence of N-acetyl cysteine by MTT assay; type: functional, cell-based
MGC-803 [13] = assay: Induction of apoptosis in human MGC803 cells assessed as upregulation of p21 levels at 1.5 to 6 ug/ml after 48 hrs by Western blot method; type: functional, cell-based
MGC-803 [14] = assay: Induction of apoptosis in human MGC803 cells assessed as necrotic cells at 3 ug/ml by annexin V-FITC/propidium iodide staining-based flow cytometric method (reference value: 1%); type: functional
MGC-803 [15] = assay: Disruption of mitochondrial membrane potential in human MGC803 cells at 1.5 to 3 ug/ml after 24 hrs in presence of N-acetyl cysteine by JC1 staining-based fluorescence microscopic method; type: functional, cell-based

## C=C1C(=O)[C@]23[C@H](O)[C@H]1C[C@H](O)[C@H]2[C@]12CCCC(C)(C)[C@H]1C[C@H]3O[C@@H]2OCCc1cn(Cc2ccc(Cl)cc2)nn1
MGC-803 [1]
  Activity: 55.4%
MGC-803 [2]
  Activity: 4.6%
SMMC-7721
  IC50: 4.44 µM
MGC-803 [3]
  Activity: Active
PC-3
  IC50: 4.02 µM
MGC-803 [4]
  Activity: 0.3%
MGC-803 [5]
  Activity: 29.2%
MGC-803 [6]
  Activity: Dose-dependent effect
MGC-803 [7]
  Activity: 14.8%
MGC-803 [8]
  Activity: 4.2%
MGC-803 [9]
  Activity: 16.1%
MGC-803 [10]
  Activity: Active
MGC-803 [11]
  Activity: 30.5%
MGC-803 [12]
  Activity: inactive
MGC-803 [13]
  Activity: Active
MGC-803 [14]
  Activity: 1.3%
MGC-803 [15]
  Activity: inactive
